Laboratory results: patent US10857180B2, “Pharmaceutical composition for improving health, cure abnormalities and degenerative disease, achieve anti-aging effect of therapy and therapeutic effect on mammals and method thereof” (priority 2014, dated 2020)

Assay: Acute toxicity / tolerated dose in healthy mice
Format: in vivo, mouse
Set-up: weight of experimental animals: unit not given here
Settings: for animals in the group alive: 24 days
Source text: To this end, the effects of the agent according to the invention on the basic physiological functions of healthy animals were studied. 70 male Cs7Bl/6J mice at the age of 7-8 weeks, weighing 18-23 g were used in the experiment. The animals were taken from R. E. Kavetsky IEPOR NASU Vivarium. Before the experiment, all the animals were healthy, with normal behavioral performance. During the experiment, the animals were kept in plastic cages under natural light illumination, on a standard diet with free access to food and water.
Clinical observations were carried out by daily examination of all animals kept in cages to identify mortality or any signs of a deviation in health status. […] All deviations were recorded. The size of the tumors was measured every 2 days (3 times a week) after the apparent onset of ascites/tumor node growth (at day 8 after the inoculation of tumor cells). Dying animals were euthanized, weighed and necropsied. The decision to euthanize such animals was taken jointly with the research supervisor and veterinarian. The animals were subjected to complete necrosis, which included examination of the external surface of the body, all passages, cranial, thoracic, abdominal cavities and their contents.
In the experiment, the animals were administered the solution comprising ^64Zne aspartate intraperitoneally at doses of 120 μg/mouse, 80 μg/mouse, 50 μg/mouse and 25 μg/mouse, and intravenously at doses of 50 μg/mouse, 25 gig/mouse and 12.5 μg/mouse. The agent was dissolved in deuterium-depleted water and injected 7 times every other day for 14 days in a volume of 0.5 ml/mouse for intraperitoneal injection and in a volume of 0.2 ml for intravenous injection with the agent. In order to determine the maximum tolerated dose of ^64Zne aspartate included in the composition of the agent according to the invention, the laboratory mice were injected with the ^64Zne aspartate solution using a series of injections (7 injections) and different routes of administration (i.p. or i.v.). The animals were observed during 24 days after the first administration of the agent (14 days for a series of injections of the ^64Zne compound and 10 days after the last administration of the agent). The overall health of the animals, state of coat and mucous membranes, their behavior, reflexes, and basic functions of the gastrointestinal tract were evaluated.

NC(CC(=O)[O-])C(=O)[O-].[64Zn+2] (racemic) [^64Zne aspartate, ^64Zn aspartate (racemic)]
animals in the group alive (i.p. 25 μg/mouse x7): 100% of the animals in the group are alive. Locomotor activity is | weight of experimental animals (i.p. 25 μg/mouse, day 0): 21.1 ± 0.5 | weight of experimental animals (i.p. 25 μg/mouse, day 2): 20.1 ± 0.3 | weight of experimental animals (i.p. 25 μg/mouse, day 4): 18.3 ± 0.7 | weight of experimental animals (i.p. 25 μg/mouse, day 8): 18.4 ± 1 | weight of experimental animals (i.p. 25 μg/mouse, day 11): 18.2 ± 0.9 | weight of experimental animals (i.p. 25 μg/mouse, day 15): 19.2 ± 0.5 | weight of experimental animals (i.p. 25 μg/mouse, day 19): 19.8 ± 0.4 | weight of experimental animals (i.p. 25 μg/mouse, day 24): 20.5 ± 0.6 | animals in the group alive (i.p. 50 μg/mouse x7): 100% of the animals in the group are alive. Locomotor activity is | weight of experimental animals (i.p. 50 μg/mouse, day 0): 21.3 ± 0.5 | weight of experimental animals (i.p. 50 μg/mouse, day 2): 20.4 ± 0.4 | weight of experimental animals (i.p. 50 μg/mouse, day 4): 19.2 ± 0.6 | weight of experimental animals (i.p. 50 μg/mouse, day 8): 19.8 ± 0.7 | weight of experimental animals (i.p. 50 μg/mouse, day 11): 19.5 ± 0.8 | weight of experimental animals (i.p. 50 μg/mouse, day 15): 19 ± 0.6 | weight of experimental animals (i.p. 50 μg/mouse, day 19): 19.2 ± 0.7 | weight of experimental animals (i.p. 50 μg/mouse, day 24): 20 ± 0.5 | animals in the group alive (i.p. 80 μg/mouse x7): 80% of the animals in the group are alive. Some changes in the | animals died after 4 or 5 injections (i.p. 80 μg/mouse, 8th or 10th day): agent. 20% of the animals in the group died after 4 or 5 injections | animals with short-lasting diarrhea (i.p. 80 μg/mouse, 18-24 hours after administration): It should be noted that a short-lasting diarrhea was observed in 40% | body weight loss compared to the control figures (i.p. 80 μg/mouse, already on the 4th day after first injection): 15-20% | weight of experimental animals (i.p. 80 μg/mouse, day 0): 21.4 ± 0.4 | weight of experimental animals (i.p. 80 μg/mouse, day 2): 20.5 ± 0.5 | weight of experimental animals (i.p. 80 μg/mouse, day 4): 17.3 ± 0.2 | weight of experimental animals (i.p. 80 μg/mouse, day 8): 17.5 ± 0.1 | weight of experimental animals (i.p. 80 μg/mouse, day 11): 17.3 ± 0.1 | weight of experimental animals (i.p. 80 μg/mouse, day 15): 16.5 ± 0.1 | weight of experimental animals (i.p. 80 μg/mouse, day 19): 17.2 ± 0.2 | weight of experimental animals (i.p. 80 μg/mouse, day 24): 17.6 ± 0.1 | animals in the group died (i.p. 120 μg/mouse, within 48 hours after the first injection): 100% of the animals in the group died within 48 hours after the | animals in the group alive (i.v. 12.5 μg/mouse x7): 100% of the animals in the group are alive. Locomotor activity is | weight of experimental animals (i.v. 12.5 μg/mouse, day 0): 21.1 ± 0.4 | weight of experimental animals (i.v. 12.5 μg/mouse, day 2): 20.9 ± 0.3 | weight of experimental animals (i.v. 12.5 μg/mouse, day 4): 20.2 ± 0.5 | weight of experimental animals (i.v. 12.5 μg/mouse, day 8): 20.6 ± 0.9 | weight of experimental animals (i.v. 12.5 μg/mouse, day 11): 20.6 ± 1 | weight of experimental animals (i.v. 12.5 μg/mouse, day 15): 20.9 ± 0.9 | weight of experimental animals (i.v. 12.5 μg/mouse, day 19): 21 ± 0.7 | weight of experimental animals (i.v. 12.5 μg/mouse, day 24): 21.1 ± 0.8 | animals in the group alive (i.v. 25 μg/mouse x7): 100% of the animals in the group are alive. Locomotor activity is | weight of experimental animals (i.v. 25 μg/mouse, day 0): 21.8 ± 0.3 | weight of experimental animals (i.v. 25 μg/mouse, day 2): 21.3 ± 0.5 | weight of experimental animals (i.v. 25 μg/mouse, day 4): 20.8 ± 0.5 | weight of experimental animals (i.v. 25 μg/mouse, day 8): 21.4 ± 0.5 | weight of experimental animals (i.v. 25 μg/mouse, day 11): 21.4 ± 0.5 | weight of experimental animals (i.v. 25 μg/mouse, day 15): 21.3 ± 0.6 | weight of experimental animals (i.v. 25 μg/mouse, day 19): 21.7 ± 0.4 | weight of experimental animals (i.v. 25 μg/mouse, day 24): 21.6 ± 0.5 | animals in the group died (i.v. 50 μg/mouse, within 10-20 minutes after the first injection): 100% of the animals in the group died within 10-20 minutes after | maximum tolerated dose (intraperitoneal): 80 μg/mouse | maximum tolerated dose (intravenously): 25 μg/mouse
